The values below come from ChEMBL document CHEMBL1158552, “Transkarbams as transdermal permeation enhancers: effects of ester position and ammonium carbamate formation” (Bioorg Med Chem Lett, 2010).

Data set [1] is described as follows: Potentiation of theophylline transdermal permeation in pig ear skin by Franz diffusion cells method. Format: ADME, cell-based, Sus scrofa. Particulars: artificial membrane; call rule not given here.
A short description of data set [2]: Potentiation of theophylline transdermal permeation in pig ear skin at pH 7 by Franz diffusion cells method. The data set is classed as ADME, Sus scrofa. Particulars: artificial membrane.

Consider `CCCCCCCCCCCCCCOC(=O)CCCN`, for which the Activity entry is “Active” in data set [1] and “Not Active” in data set [2]. For the compound `CCCCCCCCOC(=O)CCCCCCCCCN.Cl`, the result in data set [2] was Active.

Take `CCCCCCCCCCCOC(=O)CCCCCCN.Cl`: the result in data set [1] and in data set [2] was Active. In the case of `CCCCCCCCCCCCCOC(=O)CCCCN`, the results for the Activity result in data set [1] and in data set [2] were “Active” and “Not Active”, respectively. The corresponding values for `CCCCCCCCCCCCCCCOC(=O)CCN` are “Active” and “Not Active”. The corresponding values for `CCCCCCOC(=O)CCCCCCCCCCCN` are “Active” and “Not Active”. The corresponding values for `CCCCCCCCCCCOC(=O)CCCCCCN` are “Active” and “Not Active”. On to `CCCCCCCCCCCCCCCOC(=O)CCN.Cl`, for which the result in data set [2] was Active.

For the compound `CCCCCCCCCCCCOC(=O)CCCCCN`, the Activity entry is recorded as “Active” in data set [1] and “Not Active” in data set [2]. For the compound `CCCCCCOC(=O)CCCCCCCCCCCN.Cl`, the result in data set [2] was Active. The same measure, in the same setting: to `CCCCCCCCCCCCCOC(=O)CCCCN.Cl` belongs “Active”. For `CCCCCCCCCCOC(=O)CCCCCCCN`, the Activity result in data set [1] is reported as “Active”; in data set [2] it was “Not Active”. For the compound `CCCCCCCCCCCCCCOC(=O)CCCN.Cl`, the outcome in data set [2] was Active. As for `CCCCCCCCCCCCOC(=O)CCCCCN.Cl`, the outcome in data set [1] and in data set [2] was Active. For `CCCCCCCCOC(=O)CCCCCCCCCN`, the Activity entry in data set [1] is reported as “Active”; in data set [2], “Not Active”. As for `CCCCCCCCCCOC(=O)CCCCCCCN.Cl`, the outcome in data set [1] and in data set [2] was Active.
